Legend:
[1] = biological target: Beta-1 adrenergic receptor (Rattus norvegicus, UniProt P18090, W134A)
[2] = biological target: Beta-1 adrenergic receptor (Rattus norvegicus, UniProt P18090, Y356A)
[3] = biological target: Beta-1 adrenergic receptor (Rattus norvegicus, UniProt P18090)
Description: Antagonist activity at rat wild type beta-1 adrenergic receptor expressed in CHO cells

[4] = biological target: Beta-1 adrenergic receptor (Rattus norvegicus, UniProt P18090, S190A)
[5] = biological target: Beta-1 adrenergic receptor (Rattus norvegicus, UniProt P18090, Y356F)
Sequence of Beta-1 adrenergic receptor (Rattus norvegicus, UniProt P18090, Y356F) (P18090 whole entry Y356F): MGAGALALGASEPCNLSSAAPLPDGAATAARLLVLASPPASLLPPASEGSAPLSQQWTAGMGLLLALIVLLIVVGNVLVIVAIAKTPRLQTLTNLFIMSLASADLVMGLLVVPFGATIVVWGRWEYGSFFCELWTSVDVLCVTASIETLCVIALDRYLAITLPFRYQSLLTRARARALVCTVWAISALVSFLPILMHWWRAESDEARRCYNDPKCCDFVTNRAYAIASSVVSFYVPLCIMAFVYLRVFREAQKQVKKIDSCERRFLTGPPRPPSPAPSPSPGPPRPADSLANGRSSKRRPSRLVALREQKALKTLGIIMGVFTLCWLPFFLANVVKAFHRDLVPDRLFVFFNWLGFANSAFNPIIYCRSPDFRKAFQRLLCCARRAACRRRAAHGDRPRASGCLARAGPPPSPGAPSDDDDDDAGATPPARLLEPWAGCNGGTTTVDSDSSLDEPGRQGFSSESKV

Sequence of Beta-1 adrenergic receptor (Rattus norvegicus, UniProt P18090) (P18090 whole entry): as the sequence (P18090 whole entry Y356F) above, with F356Y counted along it
Sequence of Beta-1 adrenergic receptor (Rattus norvegicus, UniProt P18090, Y356A) (P18090 whole entry Y356A): as the sequence (P18090 whole entry Y356F) above, with F356A counted along it
Sequence of Beta-1 adrenergic receptor (Rattus norvegicus, UniProt P18090, W134A) (P18090 whole entry W134A): as the sequence (P18090 whole entry Y356F) above, with W134A, F356Y counted along it
Sequence of Beta-1 adrenergic receptor (Rattus norvegicus, UniProt P18090, S190A) (P18090 whole entry S190A): as the sequence (P18090 whole entry Y356F) above, with S190A, F356Y counted along it

Ki [1] [nM] | Ki [2] [nM] | Ki [3] [nM] | Ki [4] [nM] | Ki [5] [nM] | SMILES | Kd [1] [nM] | Kd [2] [nM] | Kd [3] [nM] | Kd [4] [nM] | Kd [5] [nM]
79.4 | 794 | 50.1 | 12600 | 100 | CCOCCOc1ccc(OC[C@@H](O)CNCCc2ccc(OC)c(OC)c2)cc1 | – | – | – | – | –
– | – | – | – | – | CC(C)(C)NCC(O)COc1cccc2[nH]c(C#N)c(I)c12 (stereo not given) | 0.0631 | 0.316 | 0.0631 | 0.0631 | 0.0794
7.94 | 10000 | 1.26 | 794 | 2 | Cn1cc(C(F)(F)F)nc1-c1ccc(OCC(O)CNCCOc2ccc(O)c(C(N)=O)c2)cc1 (stereo not given) [CGP-20712A] | – | – | – | – | –
63.1 | 79400 | 7.94 | 100 | 79.4 | N#Cc1cc(OCCOCC2CC2)ccc1OCC(O)CNCCNC(=O)Nc1ccc(O)cc1 (stereo not given) [LK-204545] | – | – | – | – | –

SMILES | Ki [1] [nM] | Ki [2] [nM] | Ki [3] [nM] | Ki [4] [nM] | Ki [5] [nM] | Kd [1] [nM] | Kd [2] [nM] | Kd [3] [nM] | Kd [4] [nM] | Kd [5] [nM]
CC(C)(C)NCC(O)COc1cccc2[nH]c(C#N)cc12 (stereo not given) [CYANOPINDOLOL] | 0.126 | 316 | 0.0501 | 0.316 | 0.0398 | – | – | – | – | –

— ChEMBL document CHEMBL1148532, “Role of Tyr(356(7.43)) and Ser(190(4.57)) in antagonist binding in the rat beta1-adrenergic receptor” (J Med Chem, 2006)
